In US20160237158A1, “Methods and Compositions for Targeting Tumor Microenvironment and for preventing Metastasis” (INSTITUT NATIONAL DE LA SANTÉ ET DA LA RECHERCHE MÉDICALE …, priority 2013, published 2016):

Legend:
hDF [1] = test: qRT-PCR of IL6 family cytokine genes in TGFβ1-stimulated hDF; type: cell-based, human; conditions: one hour after stimulation, relative to control (Veh)
Procedure: RNA was isolated from total cell lysates using RNeasy Mini kit (#217004, Qiagen, Turnberry Ln Valencia, Calif.) according to the manufacturer's instructions. Reverse Transcription was performed using 500 ng cytoplasmic RNA using Superscript II reverse transcriptase (#18064-014, Invitrogen, Carlsbad, Calif.). Real time PCR was performed using Fast SYBR Green Master Mix ([…]; Applied Biosystems, Foster City, Calif.) in duplicates according to the recommendations of the manufacturer on an ABI Prism 7900HT sequence detection system (Applied Biosystems, Foster City, Calif.). Relative expression of the respective gene was determined after normalization to GAPDH and calculated with the following formula: relative expression level=2ddCT

hDF [2] = test: LIF ELISA of TGFβ1-stimulated hDF culture medium; type: cell-based, human; conditions: after TGFβ1 stimulation
Procedure: For the quantitative determination of LIF protein levels secreted to the media, we used the human LIF ELISA Kit (#ELH-LIF-001, Raybiotech Inc, Norcross, Ga.) following manufacturer's specifications.
(§1) Cancer Cells were grown to confluence, washed twice with PBS and then incubated in serum-free medium at 37° C. After 48 hours, conditioned medium was collected, centrifugated at 5000 g for 5 minutes to remove cell debris and the supernatant stored at −80° C. For immunobloting analysis, fibroblasts were stimulated with cancer cells conditioned media for 5 min, otherwise stated, and lysed as described in the immunbloting section. To analyse LIF secretion upon TGFβ-1 stimulation, fibroblasts were stimulated with 2 ng/ml TGF beta-1 for 1, 4, 24 or 48 h in serum-free medium and conditioned media was prepared as below for ELISA analysis.

fibroblasts [3] = test: Fibroblast contractility (collagen lattices) and pro-invasive activity (organotypic invasion) induced by human tumour cell conditioned media; type: cell-based; set-up: key to Fibroblasts contractile & pro-invasive phenotype: +: induction; −: no induction
Procedure: (§2) In this assay, hDF or CAFs were cultured during one week in serum-free medium (with either vehicle or cytokines) or CM before embedding in matrix gel. 5×10^5 fibroblasts were embedded in a 1 ml mixture of collagen I and Matrigel18. After the gel was set at 37° C. for 1 h, 5×10^5 SCC12 were plated on top of the gel in complete media. The next day, the gel was lifted onto individual collagen coated nylon discs resting on metal bridges and fed from underneath with daily changes of complete media (with either vehicle or inhibitors), allowing the epithelial layer to grow at an air-liquid interface.
(§3) After 5 days, cultures were fixed (4% paraformaldehyde+0.25% glutaraldehyde in PBS) and processed for haematoxylin and eosin (H&E) staining by standard methods. Invasion assay was measuring the total area of SCC cells and the area of non-invading SCC cells using imageJ software (http://rsbweb.nih.gov/ij/). The value of invasion index shown is the average 1−(non-invading area/total area) of at least ten fields from three or more independent experiments. Error bars are the standard deviation.
(§4) 2.5×10^4 Fibroblasts were embedded in 100 μl of matrix gel (the Collagen-Matrigel mixture used for organotypic invasion assays) and plated into wells of a 96 well plate^57. After 1 h at 37° C., the matrices were overlaid with 100 μl serum-free medium (with either vehicle, cytokines or inhibitors) or CM. Every 2 days, medium was changed and at day 6 the gels were photographed and the respective diameters of the well and gel were measured using ImageJ. The percentage contraction was calculated using the formula 100*(well diameter−gel diameter)/well diameter.
(§5) Neutralizing antibody against LIF (AB-250-NA, R&D, Minneapolis, Minn.), IL-6 R (AB-227-NA, R&D) or TGF beta-1,2,3 (MAB1835, R&D) were used at 10 μg/ml otherwise stated. Neutralizing antibody were incubated one hour with conditioned media before being used for matrix remodelling assay and fibroblasts stimulation to neutralize the biological activity of selected cytokines.
as §1

hDF [4] = test: Fibronectin expression in hDF; type: cell-based, human; conditions: TGFβ1 stimulation
Procedure: Cells were grown on glass coverslips, fixed in 3% paraformaldehyde for 20 min at room temperature, rinsed twice in PBS and in 50 mM NH4Cl for 10 min and permeabilized with 0.5% Triton X-100 for 5 min. Cells were next blocked in PBS containing 1% bovine serum albumin (BSA) for 30 min and incubated with anti-alpha smooth muscle actin (1/400), or anti-fibronectin (1/400) antibodies in blocking buffer overnight at 4° C. After two washes in PBS, cells were incubated in the presence of a secondary antibody conjugated to Alexa 488 (1/400) for 40 min, rinsed twice in PBS, stained with DAPI (2 ug/ml) for 5 min, rinsed in water and the coverslips mounted onto glass slides using mounting media.

STAT3 = STAT3 phosphorylation in fibroblasts (western blot); type: cell-based, human; conditions: hDF stimulated by TGFβ1
From the text: (§6) For western blot analysis, antibodies against STAT3 (#9134), pY705-STAT3 (#9145), SMAD2 (#3122), pSer465/467-SMAD2 (#3108), pY1022/1023-JAK1 (#3331), MLC2 (#3672), pThr18/19-MLC2 (#3674) were purchased from Cell Signaling (Cell Signaling Technology, Beverly Mass.), α-tubulin from sigma (T4026, Sigma, Saint Louis, Mo.); JAK1 from Biolegend (#604402, Biolegend, San Diego, Calif.), GP-130 (#sc-655) and RhoA (#sc-418, Santa Cruz Biotechnology, Santa Cruz, Calif.), and alpha-smooth muscle actin (α-SMA) from Abcam (#Ab5694, Abcam, Cambridge, Mass.). For immunofluorescence staining, antibodies against α-SMA and fibronectin were purchased from Sigma (#A2547 and F3648 respectively, Sigma, Saint Louis, Mo.). Chemical inhibitors used: Pyridone 6 (#42009, Calbiochem, Los Angeles, Calif.) was used at […], SB431542 (#1614, Tocris bioscience, Ellisville, Mo.) at 10 μM, Y27632 (#1254, Tocris bioscience, Ellisville, Mo.) and Actinomycin D (#856258, Sigma, Saint Louis, USA) at 5 μg/ml.
For immunoblotting analysis, cells were lysed on ice in lysis buffer (25 mM Tris (pH 6.8), 2% Sodium dodecyl sulfate (SDS), 5% glycerol, 1% beta-mercaptoethanol, 0.01% bromophenol blue). Equal amounts of protein from each sample were loaded on sodium dodecyl sulfate-polyacrylamide gel electrophoresis, separated, and transferred onto nitrocellulose. The immunoblots were blocked by incubation in 5% bovine serum albumin, 10 mM Tris-HCl (ph7.5), 500 mM NaCl, 0.1% Tween 20 for 30 min at room temperature, probed with specific antibodies and then with secondary antibodies using common classical methods. Immunodetection was performed using chemiluminescent HRP subtrate (#WBKLS0500, Millipore, Billerica, Mass.).

fibroblasts [5] = test: Fibroblast contractility and pro-invasive activity induced by murine breast carcinoma cell conditioned media; type: cell-based, mouse; set-up: key: +: induction; −: no induction; conditions: antibodies 10 μg·ml−1
Procedure: as §2, §3, §4, §5, §1

hDF and hCAF = test: Matrix remodelling (collagen gel contraction) assay; type: cell-based, human; conditions: hLu-CAF and hBr-CAF cells, FIG. 6A
Procedure: as §4

SMAD2 = SMAD2 phosphorylation in fibroblasts (western blot); type: cell-based, human; conditions: hDF stimulated by TGFβ1
From the text: as §6
For immunoblotting analysis, cells were lysed on ice in lysis buffer (25 mM Tris (pH 6.8), 2% Sodium dodecyl sulfate (SDS), 5% glycerol, 1% beta-mercaptoethanol, 0.01% bromophenol blue). Equal amounts of protein from each sample were loaded on sodium dodecyl sulfate-polyacrylamide gel electrophoresis, separated, and transferred onto nitrocellulose. […]

[6] = A375M2 CM (h. melanoma), antibodies 10 μg·ml−1, αLIF (50)
[7] = A375P CM (h. melanoma), antibodies 10 μg·ml−1
[8] = A549 CM (h. lung carcinoma), antibodies 10 μg·ml−1
[9] = CAL27 CM (human OSCC), antibodies 10 μg·ml−1, αLIF (50)
[10] = CAL33 CM (human OSCC), antibodies 10 μg·ml−1
[11] = CAL33_LIF CM (h. engineered cell line), antibodies 10 μg·ml−1, αLIF (50)
[12] = CAL33_mock CM (h. engineered cell line), antibodies 10 μg·ml−1
[13] = CAL60 CM (human OSCC), antibodies 10 μg·ml−1
[14] = CAL166 CM (human OSCC), antibodies 10 μg·ml−1
[15] = Detroit562 CM (human OSCC), antibodies 10 μg·ml−1
[16] = LS174 CM (h. colon carcinoma), antibodies 10 μg·ml−1
[17] = MDA-MB-231 CM (breast carcinoma), antibodies 10 μg·ml−1
[18] = MDA-MB-468 CM (breast carcinoma), antibodies 10 μg·ml−1
[19] = Mel501 CM (h. melanoma), antibodies 10 μg·ml−1
[20] = Mel1205 CM (h. melanoma), antibodies 10 μg·ml−1
[21] = SCC12 CM (human OSCC), antibodies 10 μg·ml−1
[22] = SCC13 CM (human OSCC), antibodies 10 μg·ml−1
[23] = SCC25 CM (human OSCC), antibodies 10 μg·ml−1
[24] = Sbcl2 CM (h. melanoma), antibodies 10 μg·ml−1
[25] = WM35 CM (h. melanoma), antibodies 10 μg·ml−1
[26] = WM278 CM (h. melanoma), antibodies 10 μg·ml−1
[27] = WM793 CM (h. melanoma), antibodies 10 μg·ml−1

| Compound | Fibroblasts contractile & pro-invasive phenotype (fibroblasts [3]; [6]) | Fibroblasts contractile & pro-invasive phenotype (fibroblasts [3]; [7]) | Fibroblasts contractile & pro-invasive phenotype (fibroblasts [3]; [8]) | Fibroblasts contractile & pro-invasive phenotype (fibroblasts [3]; [9]) | Fibroblasts contractile & pro-invasive phenotype (fibroblasts [3]; [10]) | Fibroblasts contractile & pro-invasive phenotype (fibroblasts [3]; [11]) | Fibroblasts contractile & pro-invasive phenotype (fibroblasts [3]; [12]) | Fibroblasts contractile & pro-invasive phenotype (fibroblasts [3]; [13]) | Fibroblasts contractile & pro-invasive phenotype (fibroblasts [3]; [14]) | Fibroblasts contractile & pro-invasive phenotype (fibroblasts [3]; [15]) | Fibroblasts contractile & pro-invasive phenotype (fibroblasts [3]; [16]) | Fibroblasts contractile & pro-invasive phenotype (fibroblasts [3]; [17]) | Fibroblasts contractile & pro-invasive phenotype (fibroblasts [3]; [18]) | Fibroblasts contractile & pro-invasive phenotype (fibroblasts [3]; [19]) | Fibroblasts contractile & pro-invasive phenotype (fibroblasts [3]; [20]) | Fibroblasts contractile & pro-invasive phenotype (fibroblasts [3]; [21]) | Fibroblasts contractile & pro-invasive phenotype (fibroblasts [3]; [22]) | Fibroblasts contractile & pro-invasive phenotype (fibroblasts [3]; [23]) | Fibroblasts contractile & pro-invasive phenotype (fibroblasts [3]; [24]) | Fibroblasts contractile & pro-invasive phenotype (fibroblasts [3]; [25]) | other results |
| --- | --- | --- | --- | --- | --- | --- | --- | --- | --- | --- | --- | --- | --- | --- | --- | --- | --- | --- | --- | --- | --- |
| TGFβ1: TGF beta-1 cytokine (#100-21, Peprotech), used at 2 ng·ml-1 |  |  |  |  |  |  |  |  |  |  |  |  |  |  |  |  |  |  |  |  | increase of IL6 mRNA steady state levels (hDF [1]): 5 fold; increase of LIF mRNA steady state levels (hDF [1]): 100 fold; LIF in hDF cell culture medium, 24 h peak (hDF [2]): 200 pg/mL |
| NC(=O)c1ccc(-c2nc(-c3ccc4c(c3)OCO4)c(-c3ccccn3)[nH]2)cc1 [SB431542] | + | + | + | + | − | + | − | + | + | + | + | + | + | − | + | + | + | + | − | + | Fibroblasts contractile & pro-invasive phenotype (fibroblasts [3]; [26]): +; Fibroblasts contractile & pro-invasive phenotype (fibroblasts [3]; [27]): +; Fibroblasts contractile & pro-invasive phenotype (fibroblasts [3]; hPK CM, antibodies 10 μg·ml−1): − |
| C[C@@H](N)[C@H]1CC[C@H](C(=O)Nc2ccncc2)CC1 [Y27632] |  |  |  |  |  |  |  |  |  |  |  |  |  |  |  |  |  |  |  |  | pro-invasive fibroblast conversion induced by CAL33-LIF CM (fibroblasts [3]; CAL33-LIF CM): blocked; action of SCC12 and SCC13 CM (pro-invasive fibroblast activation) (fibroblasts [3]; SCC12 and SCC13 CM): completely abrogated |
| CC(C)(C)c1nc2c3cc[nH]c(=O)c3c3cc(F)ccc3c2[nH]1 [P6, Pyridone 6] | − | − | − | − | − | − | − | − | − | − | − | − | − | − | − | − | − | − | − | − | fibronectin expression pattern (hDF [4]): slightly reduced; STAT3 phosphorylation induced by TGFβ1 (STAT3): blocked; Fibroblasts contractile & pro-invasive phenotype (fibroblasts [3]; [26]): −; Fibroblasts contractile & pro-invasive phenotype (fibroblasts [3]; [27]): −; Fibroblasts contractile & pro-invasive phenotype (fibroblasts [3]; hPK CM, antibodies 10 μg·ml−1): −; Fibroblasts contractile & pro-invasive phenotype (fibroblasts [5]; 4T1 CM (murine breast carcinoma)): −; Fibroblasts contractile & pro-invasive phenotype (fibroblasts [5]; 4T07 CM (murine breast carcinoma)): −; Fibroblasts contractile & pro-invasive phenotype (fibroblasts [5]; 67NR CM (murine breast carcinoma)): −; Fibroblasts contractile & pro-invasive phenotype (fibroblasts [5]; 410.4 CM (murine breast carcinoma)): −; pro-invasive potential (matrix remodelling) of hCAF (hDF and hCAF): required JAK signalling to sustain their pro-invasive potential |
| siRNA GP130-IL6ST: siRNA targeting GP130-IL6ST (SEQ ID NO: 5 and 6), purchased from Dharmacon (chain 1 CUAAUUACAUUGUCUGGAA; chain 2 CUAAGGAGCAAUAUACUAU; listed as RNA, chemistry not given here) |  |  |  |  |  |  |  |  |  |  |  |  |  |  |  |  |  |  |  |  | STAT3 phosphorylation induced by TGFβ1 (STAT3): hampered; SMAD2 activation by TGFβ1 (SMAD2): without affecting |
